# Legend:
# [1] = test system: ECHORC (Watergrass (Calif.)); assay: Preemergence weed control under flooded paddy conditions; format: in vivo, Echinochloa oryzoides; details: rated 3-4 weeks after treatment
# In short: (§1)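 Visual injury scored 0-9 against control three to four weeks post-treatment, greenhouse-grown. Application: acetone/water (50/50) solutions dosed directly into flood water (1.5-3 cm over silt loam, planted top 0.5 cm), roughly 0.0313 to 0.500 kg/ha active ingredient.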
# CYPIR (Rice Flatsedge) [2] = assay: as above; format: in vivo, Cyperus iria; details: rated 3-4 weeks after treatment
# In short: as §1
# SETVI (Foxtail, Green) = assay: Postemergence herbicidal evaluation; format: in vivo, Setaria viridis; details: postemergence
# In short: (§2)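 Visual 0-9 injury score (stand, vigor, malformation, size, chlorosis, appearance vs untreated) taken four to five weeks post-spray, averaged across repeat tests. Test plants about two weeks old; foliar spray of acetone/water (1:1) with 0.5% surfactant delivering ~0.0156-0.500 kg active/ha.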
# [3] = test system: SAGPY (Arrowhead (Pygmaea)); assay: Postemergence weed control under flooded paddy conditions; format: in vivo, Sagittaria pygmaea; details: postemergence weeds, rated 3 to 4 weeks after treatment
# In short: (§3)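 Herbicidal effect is judged by eye on a 0–9 scale versus control, 3–4 weeks after dosing. Dosing is into flood water kept 1.5–3 cm over the soil, at about 0.0313–0.500 kg/ha in aqueous/acetone 50/50 v/v, on 3–5 cm weeds and 1.5–2.5-leaf rice seedlings.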
# CYPIR (Rice Flatsedge) [4] = assay: as above; format: in vivo, Cyperus iria; details: postemergence weeds, rated 3 to 4 weeks after treatment
# In short: as §3
# [5] = test system: TRZAWR (Wheat, Winter, cv Riband); assay: Preemergence herbicidal evaluation; format: in vivo, Triticum aestivum; details: preemergence, rated 4-5 weeks after treatment, 0-9 scale
# In short: (§4)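 Herbicidal effect scored visually, 0-9, at 4 to 5 weeks against a control; compound applied preemergence by aqueous acetone spray to seeded soil at about 0.0156 to 0.500 kg/ha.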
# [6] = test system: IPOHE (Morningglory, Ivyleaf); assay: Preemergence herbicidal evaluation; format: in vivo, Ipomoea hederacea; details: preemergence, rated 4-5 weeks after treatment, 0-9 scale
# In short: as §4
# ZEAMX (Corn, Field) = assay: Preemergence herbicidal evaluation; format: in vivo, Zea mays; details: preemergence, rated 4-5 weeks after treatment, 0-9 scale
# In short: as §4
# ORYSAT (Rice, Tebonnet) = assay: Postemergence herbicidal evaluation; format: in vivo, Oryza sativa, (L.) Tebonnet; details: postemergence
# In short: as §2
# ECHCG (Barnyardgrass) = assay: Postemergence herbicidal evaluation; format: in vivo, Echinochloa crus-galli; details: postemergence
# In short: as §2
# CYPSE (Flatsedge) = assay: Postemergence weed control under flooded paddy conditions; format: in vivo, Cyperus serotinus; details: postemergence weeds, rated 3 to 4 weeks after treatment
# In short: as §3
# GALAP (Galium) = assay: Postemergence herbicidal evaluation; format: in vivo, Galium aparine; details: postemergence
# In short: as §2
# ABUTH (Velvetleaf) = assay: Postemergence herbicidal evaluation; format: in vivo, Abutilon theophrasti; details: postemergence
# In short: as §2
structure (smiles),measurement,setting,value
"CCOC(=O)CN1C(=O)C(CC(=O)OCCF)SC1=Nc1cc(-n2c(=O)cc(C(F)(F)F)n(C)c2=O)c(F)cc1Cl (centres unmarked) [Compound 82, 2-{{2-Chloro-5-[3,6-dihydro-3-methyl-2,6-dioxo-4-(trifluoromethyl)-1(2H)-pyrimidinyl]-4-fluoro-phenyl}imino}-4-oxo-3,5-thiazolidinediacetic acid, 3-ethyl 2-fluoroethyl ester]",ECHORC herbicidal effect rating,[1]; 0.0313 kg/ha,4.0
same,ECHORC herbicidal effect rating,[1]; 0.0625 kg/ha,4.0
same,ECHORC herbicidal effect rating,[1]; 0.1250 kg/ha,6.0
same,ECHORC herbicidal effect rating,[1]; 0.2500 kg/ha,9.0
same,CYPIR herbicidal effect rating,CYPIR (Rice Flatsedge) [2]; 0.0313 kg/ha,0.0
same,CYPIR herbicidal effect rating,CYPIR (Rice Flatsedge) [2]; 0.0625 kg/ha,0.0
same,CYPIR herbicidal effect rating,CYPIR (Rice Flatsedge) [2]; 0.1250 kg/ha,3.0
same,CYPIR herbicidal effect rating,CYPIR (Rice Flatsedge) [2]; 0.2500 kg/ha,3.0
same,SETVI herbicidal rating,"SETVI (Foxtail, Green); rate 0.0158 kg/ha",9.0
same,SETVI herbicidal rating,"SETVI (Foxtail, Green); rate 0.0315 kg/ha",9.0
same,SETVI herbicidal rating,"SETVI (Foxtail, Green); rate 0.0630 kg/ha",9.0
same,Herbicidal rating SAGPY,[3]; Rate 0.0313 kg/ha,4.0
same,Herbicidal rating SAGPY,[3]; Rate 0.0625 kg/ha,4.0
same,Herbicidal rating SAGPY,[3]; Rate 0.1250 kg/ha,4.0
same,Herbicidal rating SAGPY,[3]; Rate 0.2500 kg/ha,7.0
same,Herbicidal rating CYPIR,CYPIR (Rice Flatsedge) [4]; Rate 0.0313 kg/ha,0.0
same,Herbicidal rating CYPIR,CYPIR (Rice Flatsedge) [4]; Rate 0.0625 kg/ha,0.0
same,Herbicidal rating CYPIR,CYPIR (Rice Flatsedge) [4]; Rate 0.1250 kg/ha,3.0
same,Herbicidal rating CYPIR,CYPIR (Rice Flatsedge) [4]; Rate 0.2500 kg/ha,3.0
same,TRZAWR rating,[5]; 0.0156 kg/ha,0.0
same,TRZAWR rating,[5]; 0.0313 kg/ha,0.0
same,TRZAWR rating,[5]; 0.0625 kg/ha,0.0
same,TRZAWR rating,[5]; 0.1250 kg/ha,0.0
same,TRZAWR rating,[5]; 0.2500 kg/ha,0.0
same,IPOHE rating,[6]; 0.0156 kg/ha,0.0
same,IPOHE rating,[6]; 0.0313 kg/ha,0.0
same,IPOHE rating,[6]; 0.0625 kg/ha,4.0
same,IPOHE rating,[6]; 0.1250 kg/ha,9.0
same,IPOHE rating,[6]; 0.2500 kg/ha,9.0
same,ZEAMX rating,"ZEAMX (Corn, Field); 0.0156 kg/ha",0.0
same,ZEAMX rating,"ZEAMX (Corn, Field); 0.0313 kg/ha",0.0
same,ZEAMX rating,"ZEAMX (Corn, Field); 0.0625 kg/ha",0.0
same,ZEAMX rating,"ZEAMX (Corn, Field); 0.1250 kg/ha",0.0
same,ZEAMX rating,"ZEAMX (Corn, Field); 0.2500 kg/ha",3.0
same,ORYSAT herbicidal rating,"ORYSAT (Rice, Tebonnet); rate 0.0158 kg/ha",3.0
same,ORYSAT herbicidal rating,"ORYSAT (Rice, Tebonnet); rate 0.0315 kg/ha",3.0
same,ORYSAT herbicidal rating,"ORYSAT (Rice, Tebonnet); rate 0.0630 kg/ha",8.5
same,ECHCG herbicidal rating,ECHCG (Barnyardgrass); rate 0.0158 kg/ha,9.0
same,ECHCG herbicidal rating,ECHCG (Barnyardgrass); rate 0.0315 kg/ha,9.0
same,ECHCG herbicidal rating,ECHCG (Barnyardgrass); rate 0.0630 kg/ha,9.0
same,Herbicidal rating CYPSE,CYPSE (Flatsedge); Rate 0.0313 kg/ha,0.0
same,Herbicidal rating CYPSE,CYPSE (Flatsedge); Rate 0.0625 kg/ha,0.0
same,Herbicidal rating CYPSE,CYPSE (Flatsedge); Rate 0.1250 kg/ha,2.0
same,Herbicidal rating CYPSE,CYPSE (Flatsedge); Rate 0.2500 kg/ha,4.0
same,GALAP herbicidal rating,GALAP (Galium); rate 0.0158 kg/ha,4.0
same,GALAP herbicidal rating,GALAP (Galium); rate 0.0315 kg/ha,9.0
same,GALAP herbicidal rating,GALAP (Galium); rate 0.0630 kg/ha,9.0
same,ABUTH herbicidal rating,ABUTH (Velvetleaf); rate 0.0158 kg/ha,9.0
same,ABUTH herbicidal rating,ABUTH (Velvetleaf); rate 0.0315 kg/ha,9.0
same,ABUTH herbicidal rating,ABUTH (Velvetleaf); rate 0.0630 kg/ha,9.0

# — patent US20020137929A1, “1 - (3-heterocyclylphenyl) isothiourea, -isourea, -guanidine and -amidine herbicidal agents” (Intellectual Property Department, BASF Aktiengesellschaft, priority 1998, published 2002)
